In PubChem BioAssay AID256 (DTP/NCI, 2004):
Values joined by “and” are separate entries in the source; they are usually repeats but may differ in a detail not shown here. Equal entries are not always repeated. Inconclusive results and toxic doses are left out. How the source made its calls: active means survival T/C of 150% or more; inactive means T/C below 125% in these data.

Tested on: CD2F1 mice, L1210 leukemia ip, survival T/C
Experiment: NCI In Vivo Anticancer Drug Screen. Data for tumor model L1210 Leukemia (intraperitoneal) in CD2F1 (CDF1) mice
Details: endpoint: mean survival time, higher = longer survival
Summary of the method: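 Transplantable tumor in mice; compound-treated vs vehicle-treated groups. Read-out = treated/control ratio of the measured endpoint.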

[1] = dose: 25.0 mg/kg/injection, schedule: Q01DX009 (ip), vehicle: saline with Tween-80
[2] = dose: 100.0 mg/kg/injection, schedule: Q01DX009 (ip), vehicle: saline with Tween-80
[3] = dose: 200.0 mg/kg/injection, schedule: Q01DX009 (ip), vehicle: saline with Tween-80
[4] = dose: 100.0 mg/kg/injection, schedule: Q04DX002 (ip), vehicle: saline with Tween-80
[5] = dose: 200.0 mg/kg/injection, schedule: Q04DX002 (ip), vehicle: saline with Tween-80
[6] = dose: 400.0 mg/kg/injection, schedule: Q04DX002 (ip), vehicle: saline with Tween-80
[7] = dose: 12.5 mg/kg/injection, schedule: Q01DX009 (ip), vehicle: saline with Tween-80

Measured: T/C

O=C(O)c1sc(C(=O)O)c(-c2ccccc2)c1-c1ccccc1
inactive: dose: 100.0 mg/kg/injection, schedule: Q01DX009 (ip), vehicle: saline sonified 92 % of control | dose: 200.0 mg/kg/injection, schedule: Q01DX009 (ip), vehicle: saline sonified 90 % of control | dose: 400.0 mg/kg/injection, schedule: Q01DX009 (ip), vehicle: saline sonified 103 % of control

CCOCC(C)(CO)CC(C)CO (configuration not stated)
inactive: dose: 100.0 mg/kg/injection, schedule: Q01DX001 (ip), vehicle: saline 101 % of control | dose: 200.0 mg/kg/injection, schedule: Q01DX001 (ip), vehicle: saline 104 % of control | dose: 400.0 mg/kg/injection, schedule: Q01DX001 (ip), vehicle: saline 103 % of control

C[Si](C)(C)/C(=N/Nc1ccc([N+](=O)[O-])cc1[N+](=O)[O-])c1ccccc1
inactive: dose: 100.0 mg/kg/injection, schedule: Q01DX001 (ip), vehicle: Klucel (hydroxypropylcellulose) (HPC) 97 % of control | dose: 200.0 mg/kg/injection, schedule: Q01DX001 (ip), vehicle: Klucel (hydroxypropylcellulose) (HPC) 95 % of control | dose: 400.0 mg/kg/injection, schedule: Q01DX001 (ip), vehicle: Klucel (hydroxypropylcellulose) (HPC) 92 % of control

CC(C)=CC(=O)CC(O)(C(F)(F)F)C(F)(F)Cl (configuration not stated)
inactive: dose: 100.0 mg/kg/injection, schedule: Q04DX003 (ip), vehicle: Klucel (hydroxypropylcellulose) (HPC) 98 % of control | dose: 200.0 mg/kg/injection, schedule: Q04DX003 (ip), vehicle: Klucel (hydroxypropylcellulose) (HPC) 93 % of control

CC(=O)Nc1cccc(N=Cc2ccc(N(CCOS(C)(=O)=O)CCOS(C)(=O)=O)cc2C)c1
inactive: dose: 6.25 mg/kg/injection, schedule: Q01DX009 (ip), vehicle: saline with Tween-80 123 % of control | dose: 8.0 mg/kg/injection, schedule: Q01DX009 (ip), vehicle: saline with Tween-80 118 % of control | [1] 124 % of control

CCOC(=O)C1=NN(c2ccccc2)C(=O)C1
inactive: [2] 94 % of control | [3] 94 % of control | dose: 400.0 mg/kg/injection, schedule: Q01DX009 (ip), vehicle: saline with Tween-80 92 % of control

CCOC(=O)c1c[nH]c([O-])c1[N+]#N
inactive: dose: 100.0 mg/kg/injection, schedule: Q01DX001 (ip), vehicle: saline with Tween-80 94 % of control | [4] 100 % of control | dose: 200.0 mg/kg/injection, schedule: Q01DX001 (ip), vehicle: saline with Tween-80 96 % of control | [5] 107 % of control | dose: 400.0 mg/kg/injection, schedule: Q01DX001 (ip), vehicle: saline with Tween-80 91 % of control | [6] 103 % of control

NC(=O)N/N=C1/CC2CC1C1C=CCC21 (configuration not stated)
inactive: [4] 102 % of control | [5] 107 % of control | [6] 98 % of control

COc1ccc(/C=N\NC(=O)CNC(=O)Nc2cccc(C(F)(F)F)c2)cc1OC
inactive: [7] 87 % of control | [2] 96 % of control | [3] 96 % of control

COc1cc(C)cc(O)c1C=O
inactive: dose: 100.0 mg/kg/injection, schedule: Q04DX003 (ip), vehicle: saline with Tween-80 100 % of control | dose: 200.0 mg/kg/injection, schedule: Q04DX003 (ip), vehicle: saline with Tween-80 100 % of control | dose: 400.0 mg/kg/injection, schedule: Q04DX003 (ip), vehicle: saline with Tween-80 100 % of control

COC(=O)C(C)S(=O)(=O)O (configuration not stated)
inactive: dose: 100.0 mg/kg/injection, schedule: Q04DX002 (ip), vehicle: saline 106 % of control | dose: 200.0 mg/kg/injection, schedule: Q04DX002 (ip), vehicle: saline 106 % of control | dose: 400.0 mg/kg/injection, schedule: Q04DX002 (ip), vehicle: saline 95 % of control

CC(=Nc1ccccc1)C1=C(O)C(Cc2ccccc2)NC1=O (configuration not stated)
inactive: [7] 98 % of control and 103 % of control | dose: 12.5 mg/kg/injection, schedule: Q04DX002 (ip), vehicle: saline with Tween-80 100 % of control | [1] 102 % of control and 111 % of control | dose: 25.0 mg/kg/injection, schedule: Q04DX002 (ip), vehicle: saline with Tween-80 103 % of control | dose: 50.0 mg/kg/injection, schedule: Q01DX009 (ip), vehicle: saline with Tween-80 118 % of control and 108 % of control | dose: 50.0 mg/kg/injection, schedule: Q04DX002 (ip), vehicle: saline with Tween-80 103 % of control | [2] 110 % of control
